Results from article PMC6272903, “Synthesis and Structure-Activity Relationship Analysis of 5-HT7 Receptor Antagonists: Piperazin-1-yl Substituted Unfused Heterobiaryls” (Molecules, 2016).

Target: T1, human 5-HT7b receptors (Homo sapiens, UniProt P34969)
T1 construct: expressed in transfected cells; host or cells: HEK293
Experiment: 5-HT7 competition radioligand binding assay ([3H]5-CT)
Settings: for Ki: read-out: Ki ± S.D. 5-HT7 binding affinity; for inhibition at 1 µM: single compound concentration of 1 µM, HEK293 cells, read-out: inhibition in library screening
Description: Novel scaffold endowed with 5-HT7R activity was identified by screening of the in-house compound library in a single compound concentration of 1 µM in a competition radioligand binding assay using [^3H]5-CT and HEK293 cells overexpressing the human 5-HT7b receptors.

[1] = HEK293 cells overexpressing human 5-HT7b receptors, at least two independent experiments in triplicate

T1 sequence (P34969 1-432): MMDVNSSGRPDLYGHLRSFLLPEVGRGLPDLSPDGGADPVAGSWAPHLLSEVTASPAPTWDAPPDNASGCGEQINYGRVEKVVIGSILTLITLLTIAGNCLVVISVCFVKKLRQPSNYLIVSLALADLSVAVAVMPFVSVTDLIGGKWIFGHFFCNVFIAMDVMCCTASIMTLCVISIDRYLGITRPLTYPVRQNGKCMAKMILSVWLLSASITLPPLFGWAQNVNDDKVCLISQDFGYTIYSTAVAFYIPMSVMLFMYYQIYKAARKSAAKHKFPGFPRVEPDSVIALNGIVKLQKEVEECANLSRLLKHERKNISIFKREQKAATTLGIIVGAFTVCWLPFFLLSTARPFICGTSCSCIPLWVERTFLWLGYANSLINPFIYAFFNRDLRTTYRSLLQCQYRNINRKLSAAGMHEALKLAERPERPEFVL

Row | Compound | Ki [1] | inhibition at 1 µM | Ki ± S.D. 5-HT7 binding affinity [1]
1 | 4-(3-Furyl)-2,4-bis(4-methylpiperazin-1-yl)pyrimidine [Compound 20] | > 10 µM |  | 
2 | c1cc(-c2ccoc2)nc(N2CCNCC2)n1 [Compound 1, 4-(3-Furyl)-2-(piperazin-1-yl)pyrimidine] | 0.009 ± 0.002 µM |  | 
3 | CN1CCN(c2nccc(-c3ccoc3)n2)CC1 [Compound 2, 4-(3-Furyl)-2-(4-methylpiperazin-1-yl)pyrimidine] | 0.0072 ± 0.0014 µM | > 60% | 
4 | CCN1CCN(c2nccc(-c3ccoc3)n2)CC1 [Compound 3, 2-(4-Ethylpiperazin-1-yl)-4-(3-furyl)pyrimidine] | 0.01 ± 0.001 µM |  | 
5 | CCCN1CCN(c2nccc(-c3ccoc3)n2)CC1 [Compound 4, 4-(3-Furyl)-2-(4-propylpiperazin-1-yl)pyrimidine] | 0.0053 ± 0.0009 µM |  | 
6 | c1ccc(CN2CCN(c3nccc(-c4ccoc4)n3)CC2)cc1 [Compound 5, 2-(4-Benzylpiperazin-1-yl)-4-(3-furyl)pyrimidine] | 0.025 ± 0.003 µM |  | 
7 | O=C(c1ccccc1)N1CCN(c2nccc(-c3ccoc3)n2)CC1 [Compound 6, 2-(4-Benzoylpiperazin-1-yl)-4-(3-furyl)pyrimidine] | 1.4 ± 0.173 µM |  | 
8 | c1ccc(CCCN2CCN(c3nccc(-c4ccoc4)n3)CC2)cc1 [Compound 7] | 0.0016 ± 0.0002 µM |  | 
9 | OCCN1CCN(c2nccc(-c3ccoc3)n2)CC1 [Compound 8, 2-[4-(2-Hydroxyethyl)piperazin-1-yl]-4-(3-furyl)pyrimidine] | 0.0085 ± 0.0011 µM |  | 
10 | CCOC(=O)CCN1CCN(c2nccc(-c3ccoc3)n2)CC1 [Compound 9, Ethyl 3-{4-{[4-(3-furyl)pyrimidin-2-yl]piperazin-1-yl}}propanoate] | 0.0089 ± 0.0021 µM |  | 
11 | CCOC(=O)CCCCCN1CCN(c2nccc(-c3ccoc3)n2)CC1 [Compound 10] | 0.0014 ± 0.0003 µM |  | 
12 | Cc1cc(-c2ccoc2)nc(N2CCN(C)CC2)n1 [Compound 11, 4-(3-Furyl)-6-methyl-2-(4-methylpiperazin-1-yl)pyrimidine] | 0.0039 ± 0.0007 µM | > 60% | 
13 | CCCCCCc1cc(-c2ccoc2)nc(N2CCN(C)CC2)n1 [Compound 14, 4-(3-Furyl)-6-n-hexyl-2-(4-methylpiperazin-1-yl)pyrimidine] | 0.0033 ± 0.0005 µM |  | 
14 | CCC(C)c1cc(-c2ccoc2)nc(N2CCN(C)CC2)n1 (stereo not drawn) [Compound 15, 4-sec-Butyl-6-(3-furyl)-2-(4-methylpiperazin-1-yl)pyrimidine] | 0.0027 ± 0.0005 µM |  | 
15 | CN1CCN(c2nc(-c3ccoc3)cc(C(F)(F)F)n2)CC1 [Compound 16, 4-(3-Furyl)-2-(4-methylpiperazin-1-yl)-6-(trifluoromethyl)pyrimidine] | 0.0083 ± 0.0017 µM |  | 
16 | CN1CCN(c2nc(C#CC3=CCCCC3)cc(-c3ccoc3)n2)CC1 [Compound 17, 4-(Cyclohexenylethynyl)-6-(3-furyl)-2-(4-methylpiperazin-1-yl)pyrimidine] | 0.018 ± 0.003 µM |  | 
17 | CN1CCN(c2nc(-c3ccoc3)cc(-c3ccoc3)n2)CC1 [Compound 18, 4,6-Bis(3-furyl)-2-(4-methylpiperazin-1-yl)pyrimidine] | 0.022 ± 0.002 µM | > 60% | 
18 | CN1CCN(c2nc(-c3ccoc3)cc(N(C)C)n2)CC1 [Compound 19, 4-Dimethylamino-6-(3-furyl)-2-(4-methylpiperazin-1-yl)pyrimidine] | > 10 µM |  | 
19 | CCCc1cnc(N2CCN(C)CC2)nc1-c1ccoc1 [Compound 21, 4-(3-Furyl)-2-(4-methylpiperazino)-5-propylpyrimidine] | 1.33 ± 0.232 µM |  | 
20 | CCCCc1nc(N2CCN(C)CC2)nc(-c2ccoc2)c1CCC [Compound 22, 4-n-Butyl-6-(3-furyl)-2-(4-methylpiperazino)-5-propylpyrimidine] | 1.25 ± 0.116 µM |  | 
21 | Cc1occc1-c1ccnc(N2CCN(C)CC2)n1 [Compound 23, 4-(2-Methyl-3-furyl)-2-(4-methylpiperazin-1-yl)pyrimidine] | 1.92 ± 0.373 µM |  | 

Row | Compound | Ki [1] | inhibition at 1 µM | Ki ± S.D. 5-HT7 binding affinity [1]
22 | Cc1cc(-c2ccnc(N3CCN(C)CC3)n2)co1 [Compound 24, 4-(5-Methyl-3-furyl)-2-(4-methylpiperazin-1-yl)pyrimidine] | 0.462 ± 0.054 µM |  | 
23 | CCCCCCc1cc(-c2coc(C)c2)nc(N2CCN(C)CC2)n1 [Compound 25, 4-n-Hexyl-6-(5-methyl-3-furyl)-2-(4-methylpiperazin-1-yl)pyrimidine] | 0.012 ± 0.002 µM |  | 
24 | CN1CCN(c2nccc(-c3ccco3)n2)CC1 [Compound 26, 4-(2-Furyl)-2-(4-methylpiperazin-1-yl)pyrimidine] | 1.02 ± 0.096 µM |  | 
25 | CCc1cc(-c2ccco2)nc(N2CCN(C)CC2)n1 [Compound 27, 4-Ethyl-6-(2-furyl)-2-(4-methylpiperazin-1-yl)pyrimidine] | 0.38 ± 0.044 µM |  | 
26 | CCCCc1cc(-c2ccco2)nc(N2CCN(C)CC2)n1 [Compound 28, 4-n-Butyl-6-(2-furyl)-2-(4-methylpiperazin-1-yl)pyrimidine] | 0.45 ± 0.063 µM |  | 
27 | Cc1ccc(-c2ccnc(N3CCN(C)CC3)n2)o1 [Compound 29, 4-(5-Methyl-2-furyl)-2-(4-methylpiperazin-1-yl)pyrimidine] | 4.23 ± 0.68 µM |  | 
28 | CN1CCN(c2nccc(-c3ccsc3)n2)CC1 [Compound 30, 2-(Methylpiperazin-1-yl)-4-(3-thienyl)pyrimidine] | 0.083 ± 0.009 µM |  | 
29 | CCCCc1cc(-c2ccsc2)nc(N2CCN(C)CC2)n1 [Compound 31, 4-n-Butyl-2-(methylpiperazin-1-yl)-6-(3-thienyl)pyrimidine] | 0.015 ± 0.003 µM |  | 
30 | CN1CCN(c2nccc(-c3cccs3)n2)CC1 [Compound 32, 2-(Methylpiperazin-1-yl)-4-(2-thienyl)pyrimidine] | 0.48 ± 0.065 µM |  | 
31 | CN1CCN(c2nccc(-c3ccccc3O)n2)CC1 [Compound 33, 4-(2-Hydroxyphenyl)-2-(4-methylpiperazin-1-yl)pyrimidine] | > 10 µM |  | 
32 | CN1CCN(c2nccc(-c3cccc(O)c3)n2)CC1 [Compound 34, 4-(3-Hydroxyphenyl)-2-(4-methylpiperazin-1-yl)pyrimidine] | > 10 µM |  | 
33 | CN1CCN(c2nccc(-c3ccc(O)cc3)n2)CC1 [Compound 35, 4-(4-Hydroxyphenyl)-2-(4-methylpiperazin-1-yl)pyrimidine] | > 10 µM |  | 
34 | CN1CCN(c2nccc(-c3cc4ccccc4o3)n2)CC1 [Compound 36, 4-(Benzofuran-2-yl)-2-(4-methylpiperazin-1-yl)pyrimidine] | 7.46 ± 1.23 µM |  | 
35 | CN1CCN(c2nccc(-c3cc4ccccc4s3)n2)CC1 [Compound 37, 4-(Benzothiophen-2-yl)-2-(4-methylpiperazin-1-yl)pyrimidine] | 5.28 ± 0.82 µM |  | 
36 | CN1CCN(c2nccc(-c3cc4ccccc4n3C)n2)CC1 [Compound 38, 4-(1-Methylindol-2-yl)-2-(4-methylpiperazin-1-yl)pyrimidine] | 1.53 ± 0.125 µM |  | 
37 | CN1CCN(c2nccc(-c3cccnc3)n2)CC1 [Compound 39, 2-(4-Methylpiperazin-1-yl)-4-(pyridin-3-yl)pyrimidine] | 0.78 ± 0.094 µM |  | 
38 | CN1CCN(c2nccc(-c3nccs3)n2)CC1 [Compound 40, 2-(4-Methylpiperazin-1-yl)-4-(thiazol-2-yl)pyrimidine] | > 10 µM |  | 
39 | CN1CCN(c2nccc(-n3ccnc3)n2)CC1 [Compound 41, (1H-Imidazol-1-yl)-2-(4-methylpiperazin-1-yl)pyrimidine] | 1.98 ± 0.275 µM |  | 
40 | CN1CCCN(c2nccc(-c3ccoc3)n2)CC1 [Compound 42, 4-(3-Furyl)-2-(4-methylhomopiperazin-1-yl)pyrimidine] | 0.148 ± 0.017 µM |  | 
41 | c1cc(-c2ccoc2)nc(N2CCCCC2)n1 [Compound 43, 4-(3-Furyl)-2-(piperidin-1-yl)pyrimidine] | > 10 µM |  | no affinity
